Results published in article PMC8241654 (Cell, 2021).

System: HLA class I
Type: cell-based, Human

For MIAQYTSAL [B7 COVID 16], the “HLA class I stabilization across alleles (in words)” value was “can stabilize a number of HLA class I alleles”.
